# Results from US20260042802A1, “POLYPEPTIDE AND USE THEREOF” (priority 2024, published 2026).
# Tested on: mouse acetate acid writhing model
# Experiment: Mouse acetate acid writhing model
# Format: in vivo, C57BL/6 mice
# Conditions: Diclofenac Sodium Group, 30 mg/kg i.p. once daily for 7 days; 8 mice
# Description: Seventy SPF-grade healthy C57BL/6 mice, half male and half female, weighing 22-25 g and 8-10 weeks old, are randomly selected. Seventy C57BL/6 mice are weighed and numbered in ascending order of body weight (No. S1-S70). The mice are randomly divided into seven groups in terms of the randomized numerical table method, which are the saline group and the experimental groups, among which the experimental groups include the PPN-01 group, the PPN-04 group, the PPN-06 group, the PPN-11 group, the PPN-12 group, and the PPN-16 group. The dosing concentration (i.e., the concentration of added polypeptides PPN-01, PPN-04, PPN-06, PPN-11, PPN-12, and PPN-16) in each group is 10 mg/kg, with 10 mice in each group.
# Saline Group: 10 healthy mice are routinely reared for one week; the saline is intraperitoneally injected once daily at a concentration of 10 ml/kg for 7 consecutive days; 15 min after the last injection is finished, 0.7% glacial acetic acid (10 ml/kg) is intraperitoneally injected; and each mouse is observed for their writhing behaviors.
# Experimental Group: 10 healthy mice are routinely reared for one week; 10 ml/kg of different polypeptides are injected intraperitoneally at a concentration of 0.1 mL/10 g once daily for 7 consecutive days; 15 min after the last injection is finished, 0.7% glacial acetic acid (10 ml/kg) is intraperitoneally injected; and each mouse is observed for their behaviors in writhing.
# During the above experiments, the time of first writhing (writhing latency) and the number of writhing in each mouse within 15 min are recorded immediately after the injection of glacial acetic acid solution in each group of mice. When behavioral responses such as inward concavity of the abdomen, extension of the torso and hind limbs, and elevation of the buttocks occur, it is considered to be a complete writhing response, and the results are shown in Table 3 and FIG. 6.
# Forty SPF-grade healthy C57BL/6 mice, half male and half female, weighing 22-25 g and 8-10 weeks old, are randomly selected. Forty C57BL/6 mice are weighed and numbered in ascending order of body weight (No. 1 to No. 40). The mice are randomly divided into five groups according to the randomized numerical table method, namely, the saline group, the low-concentration group (2.5 mg/kg), the medium-concentration group (10 mg/kg), the high-concentration group (40 mg/kg), and the diclofenac sodium group (30 mg/kg), with eight mice in each group.
# Saline Group: 8 healthy mice are routinely reared for one week; the saline is intraperitoneally injected once daily at a concentration of 10 ml/kg for 7 consecutive days; 15 min after the last injection is finished, 0.7% glacial acetic acid (10 ml/kg) is intraperitoneally injected; and each mouse is observed for their behaviors in writhing. […]
smiles,measurement,value
"O=C(O)Cc1ccccc1Nc1c(Cl)cccc1Cl [Diclofenac Sodium, diclofenac sodium, reference compound]",Inhibiting Rate (writhing),77.6%
